Test system: 885512-296-R-J2-PDC complex spheroid growth, % test/control
Assay: Anticancer human tumor 885512-296-R-J2-PDC patient-derived breast carcinoma cell line growth inhibition [Asc]
Details: for IC50: curve of first compound; for viability, T/C: stronger effect = lower value
Method in brief: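 Concentration series start at each agent's clinical Cmax, or at 10 microM when none is established, and drop in half-log steps; agents are applied alone or together to complex spheroids built with HUVEC and hMSC.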

[1] = second compound 0.1 µM, first compound 0.0316 µM
[2] = second compound 0.1 µM, first compound 0.1 µM
[3] = second compound 0.1 µM, first compound 0.316 µM
[4] = second compound 0.1 µM, first compound 1 µM
[5] = second compound 0.316 µM, first compound 0.0316 µM
[6] = second compound 0.316 µM, first compound 0.1 µM
[7] = second compound 0.316 µM, first compound 0.316 µM
[8] = second compound 0.316 µM, first compound 1 µM
[9] = second compound 1 µM, first compound 0.0316 µM
[10] = second compound 1 µM, first compound 0.1 µM
[11] = second compound 1 µM, first compound 0.316 µM
[12] = second compound 1 µM, first compound 1 µM
[13] = second compound 3.16 µM, first compound 0.0316 µM
[14] = second compound 3.16 µM, first compound 0.1 µM
[15] = second compound 3.16 µM, first compound 0.316 µM
[16] = second compound 3.16 µM, first compound 1 µM
[17] = second compound 10 µM, first compound 0.0316 µM
[18] = second compound 10 µM, first compound 0.1 µM
[19] = second compound 10 µM, first compound 0.316 µM
[20] = second compound 10 µM, first compound 1 µM
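Note: spheroids exposed to compounds for seven days.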
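Throughout, for viability, T/C: 100% = DMSO vehicle control wells.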

IC50 (second compound 0.1 µM)	IC50 (second compound 0.316 µM)	IC50 (second compound 1 µM)	IC50 (second compound 3.16 µM)	IC50 (second compound 10 µM)	SMILES	viability, T/C [1]	viability, T/C [2]	viability, T/C [3]	viability, T/C [4]	viability, T/C [5]	viability, T/C [6]	viability, T/C [7]	viability, T/C [8]	viability, T/C [9]	viability, T/C [10]	viability, T/C [11]	viability, T/C [12]	viability, T/C [13]	viability, T/C [14]	viability, T/C [15]	other results
4.75 µM	4.35 µM	3.76 µM	3.67 µM	3.29 µM	O=C(c1cc(Cc2n[nH]c(=O)c3ccccc23)ccc1F)N1CCN(C(=O)C2CC2)CC1 + Cc1c(S(C)(=O)=O)c(-c2cc(F)cc(N3CCN(c4ccc(NS(=O)(=O)c5ccc(NC(CCN6CCC(C(=O)OCCCP(=O)(O)O)CC6)CSc6ccccc6)c(S(=O)(=O)C(F)(F)F)c5)cc4)CC3)c2)c(-c2ccc(Cl)cc2)n1C(C)C	90.8%	105%	95.5%	91%	96.4%	96.7%	104%	96.6%	83.3%	98.8%	104%	92%	101%	106%	99%	viability, T/C (second compound 0.1 µM, first compound 3.16 µM): 67.9%; viability, T/C (second compound 0.1 µM, first compound 10 µM): 17.4%; viability, T/C (second compound 0.316 µM, first compound 3.16 µM): 64.2%; viability, T/C (second compound 0.316 µM, first compound 10 µM): 13.1%; viability, T/C (second compound 1 µM, first compound 3.16 µM): 56.8%; viability, T/C (second compound 1 µM, first compound 10 µM): 11.7%; viability, T/C [16]: 88.1%; viability, T/C (second compound 3.16 µM, first compound 3.16 µM): 55.7%; viability, T/C (second compound 3.16 µM, first compound 10 µM): 11.7%; viability, T/C [17]: 125%; viability, T/C [18]: 113%; viability, T/C [19]: 97.5%; viability, T/C [20]: 90.3%; viability, T/C (second compound 10 µM, first compound 3.16 µM): 47.5%; viability, T/C (second compound 10 µM, first compound 10 µM): 9.81%
0.121 µM	0.0941 µM	0.089 µM	0.0779 µM	0.452 µM	O=C(c1ccc(F)c(F)c1Nc1ccc(I)cc1F)N1CC(O)([C@@H]2CCCCN2)C1 + Cc1c(S(C)(=O)=O)c(-c2cc(F)cc(N3CCN(c4ccc(NS(=O)(=O)c5ccc(NC(CCN6CCC(C(=O)OCCCP(=O)(O)O)CC6)CSc6ccccc6)c(S(=O)(=O)C(F)(F)F)c5)cc4)CC3)c2)c(-c2ccc(Cl)cc2)n1C(C)C	69.9%	50.8%	34%	13.1%	63.6%	51.9%	28.7%	13.7%	68.1%	48.4%	30.2%	12.2%	55.1%	51.5%	30.4%	viability, T/C (second compound 0.1 µM, first compound 0.00316 µM): 77.6%; viability, T/C (second compound 0.1 µM, first compound 0.01 µM): 82.5%; viability, T/C (second compound 0.316 µM, first compound 0.00316 µM): 94%; viability, T/C (second compound 0.316 µM, first compound 0.01 µM): 88.8%; viability, T/C (second compound 1 µM, first compound 0.00316 µM): 86.9%; viability, T/C (second compound 1 µM, first compound 0.01 µM): 68.7%; viability, T/C (second compound 3.16 µM, first compound 0.00316 µM): 102%; viability, T/C (second compound 3.16 µM, first compound 0.01 µM): 86.8%; viability, T/C [16]: 11.2%; viability, T/C (second compound 10 µM, first compound 0.00316 µM): 111%; viability, T/C (second compound 10 µM, first compound 0.01 µM): 109%; viability, T/C [17]: 99.2%; viability, T/C [18]: 96.1%; viability, T/C [19]: 64.2%; viability, T/C [20]: 16.4%

— PubChem BioAssay AID1963447 (Molecular Pharmacology Branch, DTP, NCI, 2024)
